The values that follow come from patent US11872210B2, “Thiol isomerases inhibitors and use thereof” (WESTERN NEW ENGLAND UNIVERSITY, priority 2017, dated 2024).

pIC50: −log10 of the molar value.

One assay deals with MDA-MB-231 cells. Briefly: PrestoBlue cell proliferation assay, MDA-MB-231. It is filed as cell-based. As to the method: (§1) Cells were plated at 6,000 cells/well in a 96-well plate and treated with the indicated concentration of zafirlukast 24 hours later. Cells were allowed to grow for an additional 24 hours before alterations in growth were measured by the PrestoBlue cell proliferation assay in triplicate. Fluorescence readings with an excitation at 570 nm and emission of 600 nm were collected and treated samples were converted to a percentage of the untreated controls. OVCar8 (human ovarian cancer cell line), HCT116 (human colon cancer), HeLa (cervical cancer cell line) and MDA-MB-231 (breast cancer cell line) cell lines were examined for their ability to inhibit cell proliferation. […] Table 1 illustrates the results of a cell proliferation assay testing zafirlukast against OVCar8 cells, HCT116 cells, HeLa cells and MDA-MB-231 cells.

In the next assay the target is T1, thioredoxin (TRX) (Homo sapiens, UniProt P10599).
T1 construct: purchased AbCam (Cambridge Mass.)
T1 sequence (P10599 1-105): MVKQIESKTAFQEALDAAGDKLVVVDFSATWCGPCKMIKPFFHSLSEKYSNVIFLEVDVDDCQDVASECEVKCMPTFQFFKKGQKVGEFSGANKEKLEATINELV
As to the kind of experiment: Insulin-based turbidometric assay of thiol isomerase inhibitory activity (thioredoxin). The assay is classed as biochemical. The following applies: insulin turbidity assay, 6 point dose curve. From the text: (§2) Recombinant thiol isomerases were purchased from AbCam (Cambridge Mass.), recombinant insulin (bovine), bacitracin, dithiothreitol (DTT) buffers and all other chemicals were purchased from Sigma Aldrich (St. Louis, Mo.; while 384 well clear bottom plates were purchased from Corning (Corning, N.Y.).
(§3) The catalytic reduction of insulin by thiol isomerases in the presence of DTT results in aggregation of insulin chains. The turbidity of insulin aggregation can be monitored spectrophotometrically at an optical density (OD) at 650 nm. This approach has been used by multiple groups to identify thiol isomerase inhibitors in either a kinetic or endpoint fashion. A final concentration of either 10 μg/mL PDI, 30 μg/mL ERp5, 10 μg/mL ERp72 or 10 μg/mL thioredoxin, 125 μM insulin and 2 mM ethylenediaminetetraacetic acid (EDTA) in 30 μL of 100 mM potassium phosphate buffer was added to each experimental well plate, while negative control wells lacked any thiol isomerase. Lead compounds were diluted in a 6 point dose curve and the turbidity of insulin aggregation was measured kinetically each minute for 75 minutes using a Spectramax M3 plate reader (Molecular Devices, Sunnyvale, Calif.) Specificity assay utilized the insulin turbidity assay as well.

The next assay has as its target T2, PDI (Homo sapiens, UniProt P07237).
T2 construct: purchased AbCam (Cambridge Mass.)
Briefly: Insulin-based turbidometric assay of thiol isomerase inhibitory activity (PDI). The assay is classed as biochemical. Particulars: insulin turbidity assay, 6 point dose curve.
Description: as §2, §3

For the next assay, the target named is T3, ERp5 (Homo sapiens, UniProt Q15084).
T3 construct: purchased AbCam (Cambridge Mass.)
T3 sequence (Q15084 20-440): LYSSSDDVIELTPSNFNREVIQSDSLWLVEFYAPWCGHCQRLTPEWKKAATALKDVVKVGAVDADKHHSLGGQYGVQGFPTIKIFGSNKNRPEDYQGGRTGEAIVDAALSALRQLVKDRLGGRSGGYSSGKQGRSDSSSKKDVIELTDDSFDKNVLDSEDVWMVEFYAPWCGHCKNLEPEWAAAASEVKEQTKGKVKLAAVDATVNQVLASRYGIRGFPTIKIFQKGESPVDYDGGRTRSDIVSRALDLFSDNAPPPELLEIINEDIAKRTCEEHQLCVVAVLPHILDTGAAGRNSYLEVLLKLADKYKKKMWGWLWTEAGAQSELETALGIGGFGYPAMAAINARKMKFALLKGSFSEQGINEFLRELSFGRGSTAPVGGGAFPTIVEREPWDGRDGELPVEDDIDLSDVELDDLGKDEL
As to the kind of experiment: Insulin-based turbidometric assay of thiol isomerase inhibitory activity (ERp5). The assay is classed as biochemical. The following applies: insulin turbidity assay, 6 point dose curve.
Description: as §2, §3

The test system of a further assay is HeLa cells. Briefly: PrestoBlue cell proliferation assay, HeLa. It is filed as cell-based. On the procedure: as §1
The next assay has as its target T4, ERp72 (Homo sapiens, UniProt P13667).
T4 construct: purchased AbCam (Cambridge Mass.)
T4 sequence (P13667 21-645): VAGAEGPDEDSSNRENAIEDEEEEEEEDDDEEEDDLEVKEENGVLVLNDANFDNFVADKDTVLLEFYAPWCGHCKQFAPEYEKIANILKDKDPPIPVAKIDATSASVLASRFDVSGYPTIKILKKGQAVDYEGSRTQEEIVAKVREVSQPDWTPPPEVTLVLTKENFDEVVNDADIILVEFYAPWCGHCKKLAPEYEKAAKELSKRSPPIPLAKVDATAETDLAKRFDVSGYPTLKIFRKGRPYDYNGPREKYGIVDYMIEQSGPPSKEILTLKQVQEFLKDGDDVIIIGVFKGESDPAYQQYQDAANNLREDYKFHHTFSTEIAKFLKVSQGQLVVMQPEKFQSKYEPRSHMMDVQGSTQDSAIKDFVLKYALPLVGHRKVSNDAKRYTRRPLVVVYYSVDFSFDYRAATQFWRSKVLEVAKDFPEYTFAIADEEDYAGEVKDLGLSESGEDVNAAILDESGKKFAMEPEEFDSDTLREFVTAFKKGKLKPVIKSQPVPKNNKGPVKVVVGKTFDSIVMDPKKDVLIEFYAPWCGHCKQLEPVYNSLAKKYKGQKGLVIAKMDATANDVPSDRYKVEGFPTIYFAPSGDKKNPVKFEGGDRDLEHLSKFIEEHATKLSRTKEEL
Briefly: Insulin-based turbidometric assay of thiol isomerase inhibitory activity (ERp72). Particulars: insulin turbidity assay, 6 point dose curve. It is filed as biochemical.
Description: as §2, §3

The next assay has as its target T5, ERp57 (Homo sapiens, UniProt P30101).
T5 construct: purchased AbCam (Cambridge Mass.)
T5 sequence (P30101 25-505): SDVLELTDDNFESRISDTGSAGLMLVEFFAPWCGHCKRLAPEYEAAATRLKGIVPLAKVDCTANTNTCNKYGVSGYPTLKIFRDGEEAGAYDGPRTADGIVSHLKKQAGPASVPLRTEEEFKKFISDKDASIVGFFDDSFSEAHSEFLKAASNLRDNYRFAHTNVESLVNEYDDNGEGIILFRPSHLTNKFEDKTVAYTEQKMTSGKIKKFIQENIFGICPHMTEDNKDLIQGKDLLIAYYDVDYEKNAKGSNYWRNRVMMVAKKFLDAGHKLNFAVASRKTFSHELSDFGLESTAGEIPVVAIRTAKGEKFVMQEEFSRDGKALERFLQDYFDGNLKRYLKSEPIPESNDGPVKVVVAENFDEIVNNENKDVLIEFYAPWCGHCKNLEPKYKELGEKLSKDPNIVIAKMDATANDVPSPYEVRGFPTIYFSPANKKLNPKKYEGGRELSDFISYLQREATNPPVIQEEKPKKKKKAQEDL
As to the kind of experiment: Insulin-based turbidometric assay of thiol isomerase inhibitory activity (ERp57). It is filed as biochemical. Particulars: insulin turbidity assay, 6 point dose curve.

T2 sequence (P07237 18-508): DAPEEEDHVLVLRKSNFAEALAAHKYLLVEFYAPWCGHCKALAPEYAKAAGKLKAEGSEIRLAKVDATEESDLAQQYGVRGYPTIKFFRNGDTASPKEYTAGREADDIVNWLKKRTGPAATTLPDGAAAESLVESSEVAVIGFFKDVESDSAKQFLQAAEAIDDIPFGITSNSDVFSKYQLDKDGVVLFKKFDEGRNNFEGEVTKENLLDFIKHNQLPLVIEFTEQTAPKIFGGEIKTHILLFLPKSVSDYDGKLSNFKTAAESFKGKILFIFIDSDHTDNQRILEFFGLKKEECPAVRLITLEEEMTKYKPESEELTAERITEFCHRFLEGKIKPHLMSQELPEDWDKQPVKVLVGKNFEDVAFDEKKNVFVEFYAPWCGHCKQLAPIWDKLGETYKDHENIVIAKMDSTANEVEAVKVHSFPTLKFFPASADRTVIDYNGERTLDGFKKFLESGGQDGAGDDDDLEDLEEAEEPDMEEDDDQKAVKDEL

As a reminder, the pIC50 is the IC50 on a negative log10 scale, so that one unit is a factor of ten. A low value points to a large IC50. `COc1cc(C(=O)NS(=O)(=O)c2ccccc2C)ccc1Cc1cn(C)c2ccc(NC(=O)OC3CCCC3)cc12` [zafirlukast, 4-(5-cyclopentyloxycarbonylamino-1-methylindol-3-ylmethyl)-3-methoxy-N-o-tolylsulfonylbenzamide]: the pIC50 in the assay with MDA-MB-231 cells (Homo sapiens, MDA-MB-231, breast cancer, 24 hours treatment) was 4.00; with HeLa cells (Homo sapiens, cervical cancer, 24 hours treatment), 4.52. Also, the “sensitivity of cell proliferation (in words)” value in the assay on MDA-MB-231 cells (MDA-MB-231, compared with OVCar8 and HCT116) was “less sensitive”; with HeLa cells (compared with OVCar8 and HCT116), “less sensitive”. Moreover, the “inhibitory range on TRX” value against thioredoxin (TRX) is 10 to 300 µM. At PDI, the “inhibitory range on PDI” value lay within 30 to 300 µM. For the same compound, the “inhibitory range on ERp5” value against ERp5 lay in the range of 10 to 300 µM. On ERp72, the “inhibitory range on ERp72” value fell in the range of 10 to 300 µM. In addition, on ERp57, the “inhibitory range on ERp57” value lay within 30 to 300 µM.
